The structures appear in SMILES notation. Residues, ends and D or L forms follow the SMILES beside them.

Test [1] concerns S. typhimurium (ATCC 14028). The experiment in a line: Colony count assays. It counts as cell-based, Salmonella typhimurium. Conditions: 30 μg/ml. The protocol:
Antimicrobial activity of NK-lysin peptides was assayed in cultures of S. typhimurium (ATCC 14028). The bacteria were maintained in tryptic soy broth at 3TC and were grown to the mid-logarithmic phase prior to testing. To determine the activity of NK-lysin peptides, colony count assays were carried out. Bacteria were pelleted and then re-suspended in a 10 mM sodium phosphate buffer pH 7.0 and then diluted to a density of (2×10^6 CFU ml^−1 in MHB. 50 μl of NK-lysin peptide were combined with an equal volume of bacterial culture and incubated at room temperature for 3 hours. A 1 μl sample of each culture was then diluted by 1000 (in 1 ml) and spread over MH agar plates. Colonies were counted after 24 hours at room temperature to determine the bacteria that survived.

The subject of test [2] is S. typhimurium (ATCC 14028). It counts as cell-based, Salmonella typhimurium. The following applies: ATCC 14028. The method, then:
Screening of NK-lysin peptides was carried out against gram-negative S. typhimurium (ATCC 14028) bacteria. Overnight cultivation of the bacteria was carried out at a temperature of 3TC. A bacterial suspension was created in 10 mM sodium phosphate buffer pH 7.0 having a density of (2×10^6 CFU ml^−1) and plated on Muller-Hinton (MH) agar plates to inoculate. After the plates were dry, antibiotics discs of various concentrations (0 to 150 μg/ml) of antibiotic or NK-lysin peptides were applied to the surface of the inoculated plates. The plates were cultured overnight at 3TC and observed for restriction of growth by determining the diameter of bacterial-free zones surrounding each disc. Ceftazidime antibiotic was employed as a positive control.

In test [3] the test system is gram-positive and gram-negative bacteria. Nature of the test: organism not typed. Conditions: in vitro, some bacterial strains. The text has this:
The gram-positive bacterial strains utilized were Streptococcus pyogenes (ATCC 19615) and Streptococcus mutans (isolate obtained from a patient at King Abdul-Aziz hospital). The gram-negative bacterial strains used included Salmonella typhimurium (ATCC 14028), Escherichia coli (ATCC 11775), Pseudomonas aeruginosa (ATCC 9027), Klebsiella oxytoca (ATCC 49131), Shigella sonnei (ATCC 25931), and Klebsiella pneumoniae (patient isolate). Tryptic soy broth (TSB) was used to grow all bacterial strain overnight, after which the bacteria were washed using phosphate-buffered saline (PBS, NaCl 8 g/L, KCl 0.2 g/L, Na2HPO4 1.4 g/L, KH2PO4 0.24 g/L), and then diluted in the same buffer with 1/1000 TSB to an OD600 nm of 0.08-0.1 (1×10^8) colony-forming units (CFU)/ml, which was determined after performing retrospective plate counts on tryptic soy agar. Unless otherwise noted, the experiments in the following examples employed this inoculum preparation apart from when minimum inhibitory and bactericidal concentrations were determined, which employed cells in Muller Hinton broth. […]
Mueller Hinton broth (MHB) comprising 0.01% v/v acetic acid (Sigma Aldrich; St Louis, Mo.) and 0.2% w/v bovine serum albumin (Sigma Aldrich). […] The treated plates were incubated at […] and optical densities were determined for each well at 0 minutes, 1, 2 and 3 hours and after an overnight incubation. […]

Test [4] deals with Streptococcus mutans (isolate). Nature of the test: Growth kinetic activity at 2×MIC. Type of test: cell-based. The following applies: time dependent, FIG. 3B. The method, then: (§1) The kinetic killing abilities of NK-lysin peptides were gauged in accordance with the Clinical Laboratory and Standard Institute (CLSI) broth micro-dilution technique presented by Wiegand and Hancock (2008). Mueller Hinton broth comprising 0.01% v/v acetic acid was prepared with 0.2% w/v bovine serum albumin, as above. […] The plate was then incubated at room temperature. […] A distinct triplicate was used to repeat the kinetic potential of NK-lysin peptides thrice.

Test [5] has as its system Salmonella typhimurium (ATCC 14028). Nature of the test: Growth kinetic activity at 2×MIC. Type of test: cell-based. The protocol:
as §1

Consider `CC[C@H](C)[C@H](NC(=O)[C@H](C)NC(=O)[C@H](CC(=O)O)NC(=O)[C@H](CCC(=O)O)NC(=O)[C@H](CC(=O)O)NC(=O)[C@@H]1CCCN1)C(=O)N[C@@H](CC(N)=O)C(=O)N[C@@H](CC(N)=O)C(=O)N[C@@H](C)C(=O)N[C@@H](CC(C)C)C(=O)N[C@@H](CC(N)=O)C(=O)N[C@@H](CCCCN)C(=O)N[C@H](C(=O)N[C@@H](CS)C(=O)N[C@@H](CO)C(=O)N[C@H](C(=O)NCC(=O)N[C@@H](CCCNC(=N)N)C(=O)N[C@@H](CCCNC(=N)N)C(=O)N[C@@H](CCC(N)=O)C(=O)N[C@@H](CCCNC(=N)N)C(=O)N[C@@H](CO)C(=O)N[C@H](C(=O)N[C@@H](CS)C(=O)N[C@@H](CCCCN)C(=O)N[C@@H](CCC(N)=O)C(=O)N[C@@H](CC(C)C)C(=O)N[C@@H](CC(C)C)C(=O)N[C@@H](CCCCN)C(=O)N[C@@H](CCCCN)C(=O)O)[C@@H](C)CC)[C@@H](C)O)C(C)C` [Chicken NK-lysin] (H-PDEDAINNALNKVCSTGRRQRSICKQLLKK-OH; N-terminus and C-terminus assumed), for which, in test [1], the “decrease of colony number” value is recorded as “approximately 10 fold”. This molecule also yielded a clear zone diameter in test [2] of 23 mm. Further, in test [3], the “time to nearly complete killing” value was not above 3 h. Further, in test [4], the “kinetic activity compared between peptides” value is on record as “more potent activity than bovine or human NK-lysin peptides”. For the same molecule, the “growth inhibition” value in test [5] (2×MIC, after 4 hr of incubation) is given as “Complete inhibition”. Besides, the “lethality” value in test [5] (1 hr after treatment) is “high lethality”.

These data come from patent US20220305093A1, “NK-LYSIN PEPTIDE COMPOSITIONS AND METHODS FOR THEIR USE AS ANTIMICROBIAL/ANTIVIRAL AGENTS” (priority 2021, published 2022).
